The source of these data is patent publication US20250270200A1, “CTPS1 INHIBITORS AND USES THEREOF” (Nimbus Clotho, Inc., priority 2022, published 2025).

Structures can show the parent of a compound that is named as a salt.

The assay concerns the target T1, human CTPS1 (Homo sapiens, UniProt P17812).
T1 sequence (P17812 1-591): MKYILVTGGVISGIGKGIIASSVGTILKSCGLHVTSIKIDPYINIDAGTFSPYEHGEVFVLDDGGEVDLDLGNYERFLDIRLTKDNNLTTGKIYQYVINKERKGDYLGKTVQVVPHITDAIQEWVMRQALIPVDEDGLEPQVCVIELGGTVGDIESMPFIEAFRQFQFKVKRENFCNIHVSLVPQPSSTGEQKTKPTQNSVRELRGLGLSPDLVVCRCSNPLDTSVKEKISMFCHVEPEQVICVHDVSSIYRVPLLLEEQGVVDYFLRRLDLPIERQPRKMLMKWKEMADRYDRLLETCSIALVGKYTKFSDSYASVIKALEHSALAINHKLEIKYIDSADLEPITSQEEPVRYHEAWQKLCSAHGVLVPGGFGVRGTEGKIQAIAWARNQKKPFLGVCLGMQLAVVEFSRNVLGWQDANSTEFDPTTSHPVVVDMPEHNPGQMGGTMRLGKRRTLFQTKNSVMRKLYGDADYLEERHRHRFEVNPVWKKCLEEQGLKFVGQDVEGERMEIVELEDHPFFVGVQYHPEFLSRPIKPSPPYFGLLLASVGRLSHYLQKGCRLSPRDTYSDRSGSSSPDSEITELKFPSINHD
The assay is described as follows: ADP-Glo assay, human CTPS1 enzyme inhibition. It counts as biochemical. The note with it: wild-type human CTPS1, 25 nM enzyme; ADP-Glo; read-out: ADP-Glo_WT_hCTPS1—25 nM_IC50 (IC50). The procedure, abridged:
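Full-length tagged human CTPS1 (25 nM) pre-incubated 10 min at 25° C with compound, then 10 min with ATP (120 μM) and UTP (160 μM); reaction started with L-glutamine (100 μM) and GTP (60 μM), 1% DMSO, in HEPES pH 7.4, 10 mM Mg2+, 5 mM KCl, 2 mM DTT. Run within linear phase at 25° C; ADP measured by ADP-Glo luminescence.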
(In ADP-Glo the light output rises with the ADP produced.)

The term IC50 denotes the concentration that gives 50% inhibition. Take `CCOc1cncc(-c2cnc(C(=O)N[C@@H](CF)c3cc(NS(=O)(=O)C4CC4)ccn3)s2)n1` [I-160, (R)-N-(1-(4-(cyclopropanesulfonamido)pyridin-2-yl)-2-fluoroethyl)-5-(6-ethoxypyrazin-2-yl)thiazole-2-carboxamide]: the half-maximal inhibitory concentration (IC50) was 5 to 25 nM.

For the molecule `CCOc1cncc(-c2cnc(C(=O)N[C@H](CF)c3cc(NS(=O)(=O)C4CC4)ccn3)s2)n1` [I-161, (S)-N-(1-(4-(cyclopropanesulfonamido)pyridin-2-yl)-2-fluoroethyl)-5-(6-ethoxypyrazin-2-yl)thiazole-2-carboxamide], the IC50 was not above 5 nM.

`O=C(N[C@@H](CN1CCCC1)c1cc(NS(=O)(=O)C2CC2)ccn1)c1ncc(-c2cnn3ccc(Cl)cc23)s1` [I-162, (S)-5-(5-chloropyrazolo[1,5-a]pyridin-3-yl)-N-(1-(4-(cyclopropanesulfonamido)pyridin-2-yl)-2-(pyrrolidin-1-yl)ethyl)thiazole-2-carboxamide]: the IC50 was 50 to 100 nM.

Regarding `O=C(N[C@H](CN1CCCC1)c1cc(NS(=O)(=O)C2CC2)ccn1)c1ncc(-c2cnn3ccc(Cl)cc23)s1` [I-163, (R)-5-(5-chloropyrazolo[1,5-a]pyridin-3-yl)-N-(1-(4-(cyclopropanesulfonamido)pyridin-2-yl)-2-(pyrrolidin-1-yl)ethyl)thiazole-2-carboxamide], the IC50 lay in the range of 25 to 50 nM.

Regarding `CN(C)C[C@H](NC(=O)c1ncc(-c2cnn3ccc(Cl)cc23)s1)c1cc(NS(=O)(=O)C2CC2)ccn1` [I-164, (S)-5-(5-chloropyrazolo[1,5-a]pyridin-3-yl)-N-(1-(4-(cyclopropanesulfonamido)pyridin-2-yl)-2-(dimethylamino)ethyl)thiazole-2-carboxamide, formic acid salt], the IC50 lay in the range of 50 to 100 nM.

In the case of `CN(C)C[C@@H](NC(=O)c1ncc(-c2cnn3ccc(Cl)cc23)s1)c1cc(NS(=O)(=O)C2CC2)ccn1` [I-165, (R)-5-(5-chloropyrazolo[1,5-a]pyridin-3-yl)-N-(1-(4-(cyclopropanesulfonamido)pyridin-2-yl)-2-(dimethylamino)ethyl)thiazole-2-carboxamide, formic acid salt], the IC50 lay within 5 to 25 nM.

As to `CCOc1cncc(-c2cnc(C(=O)N[C@H](c3cc(NS(=O)(=O)C4CC4)ccn3)[C@H](C)N3C[C@H]4C[C@@H]3CO4)s2)n1` [I-166, N-((1S,2S)-2-((1R,4R)-2-oxa-5-azabicyclo[2.2.1]heptan-5-yl)-1-(4-(cyclopropanesulfonamido)pyridin-2-yl)propyl)-5-(6-ethoxypyrazin-2-yl)thiazole-2-carboxamide], the IC50 lay within 50 to 100 nM.

As for `CCOc1cncc(-c2cnc(C(=O)N[C@H](c3cc(NS(=O)(=O)C4CC4)ccn3)[C@@H](C)N3C[C@H]4C[C@@H]3CO4)s2)n1` [I-167, N-((1S,2R)-2-((1R,4R)-2-oxa-5-azabicyclo[2.2.1]heptan-5-yl)-1-(4-(cyclopropanesulfonamido)pyridin-2-yl)propyl)-5-(6-ethoxypyrazin-2-yl)thiazole-2-carboxamide], the IC50 is 25 to 50 nM.

Consider `CCOc1cncc(-c2cnc(C(=O)N[C@@H](c3cc(NS(=O)(=O)C4CC4)ccn3)[C@H](C)N3C[C@H]4C[C@@H]3CO4)s2)n1` [I-168, N-((1R,2S)-2-((1R,4R)-2-oxa-5-azabicyclo[2.2.1]heptan-5-yl)-1-(4-(cyclopropanesulfonamido)pyridin-2-yl)propyl)-5-(6-ethoxypyrazin-2-yl)thiazole-2-carboxamide], for which the IC50 lay in the range of 5 to 25 nM.

For the molecule `CCOc1cncc(-c2cnc(C(=O)N[C@@H](c3cc(NS(=O)(=O)C4CC4)ccn3)[C@@H](C)N3C[C@H]4C[C@@H]3CO4)s2)n1` [I-169, N-((1R,2R)-2-((1R,4R)-2-oxa-5-azabicyclo[2.2.1]heptan-5-yl)-1-(4-(cyclopropanesulfonamido)pyridin-2-yl)propyl)-5-(6-ethoxypyrazin-2-yl)thiazole-2-carboxamide], the IC50 was 25 to 50 nM.
